Measured values as given in patent US5401777A, “Use of preparations of curcuma plants” (priority 1992, dated 1995).

Columns and labels:
[1] = tested on: formation of peroxidized arachidonic acid products; test: inhibition of Fe/ascorbate-induced formation of peroxidized arachidonic acid products in the cell-free system; assay type: biochemical
Excerpt: (d) the formation of peroxidized arachidonic acid products in the cell-free system with an IC50 of approx. 1 μmol/l.

[2] = tested on: experimental stomach ulcers; conditions: rats; cited from earlier work
[3] = tested on: histamine-induced stomach ulcers; conditions: guinea pigs; Bhatia et al. 1964; cited from earlier work
stomach mucosa = conditions: oral, daily doses of 100 mg/kg over 6 days; Prasad et al. 1976; cited from earlier work

## COc1cc(/C=C/C(=O)CC(=O)/C=C/c2ccc(O)c(OC)c2)ccc1O [curcumin]
[1]
  concentration in which the antioxidative effect is already achieved: 1 μm
[2]
  effect on experimental stomach ulcers: does not cure
[3]
  protective effect against histamine-induced stomach ulcers: did not find any protective effect
Stomach mucosa
  effect of high doses on the stomach mucosa: damaged the stomach mucosa
